Some test systems named below: ACHN renal; DU-145 prostate; HOP-92 NSCLC; KM12 colon; MALME-3M melanoma; NCI-H23 lung; OVCAR-4 ovarian; OVCAR-5 ovarian; RPMI-8226 leukemia; SK-MEL-2 melanoma.
Holding throughout (assay): inhibition of tumour cell growth, NCI panel, 48 h

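Test compounds were applied to cells in 96-well plates for 48 hours at 5 doses. GI50 = concentration required for 50% inhibition of growth. TGI is the concentration that stops growth completely.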

`Cc1nc2ccccc2c(/C=C/c2ccc(F)cc2)c1C(=O)/C=C/c1ccccc1`: the GI50 is 1.98 µM in the assay on ACHN renal; 2.34 µM with DU-145 prostate; 2.02 µM with HOP-92 NSCLC; 2.38 µM in the assay on KM12 colon; 2.18 µM in the assay on MALME-3M melanoma; 1.99 µM in the assay with NCI-H23 lung. Besides, the GI50 in the assay with OVCAR-4 ovarian was 3.66 µM; with OVCAR-5 ovarian, 1.92 µM; in the assay on RPMI-8226 leukemia it was 1.87 µM; in the assay on SK-MEL-2 melanoma it was 3.22 µM. Besides, the TGI with ACHN renal turned out to be 4.65 µM; in the assay with DU-145 prostate, 6.21 µM; in the assay on HOP-92 NSCLC it was 31.5 µM; in the assay with KM12 colon it was 6.82 µM; in the assay on MALME-3M melanoma, 5.03 µM; with NCI-H23 lung it was 5.43 µM. Further, the TGI is over 100 µM in the assay with OVCAR-4 ovarian, 3.95 µM with OVCAR-5 ovarian, 5.95 µM with RPMI-8226 leukemia and 15.8 µM in the assay with SK-MEL-2 melanoma.

`O=NN(CC(=O)NNc1ccccc1)CC(=O)NNc1ccccc1`: the TGI with ACHN renal, in the assay on DU-145 prostate, in the assay with HOP-92 NSCLC, in the assay with KM12 colon, in the assay on MALME-3M melanoma and in the assay on NCI-H23 lung was over 100 µM throughout. For the same molecule, the TGI in the assay with OVCAR-4 ovarian, with OVCAR-5 ovarian, in the assay with RPMI-8226 leukemia and in the assay with SK-MEL-2 melanoma was over 100 µM throughout. In addition, the GI50 in the assay with DU-145 prostate is over 100 µM; with HOP-92 NSCLC, over 100 µM; with KM12 colon, 0.893 µM; in the assay on MALME-3M melanoma, 42 µM; in the assay on NCI-H23 lung it was over 100 µM; in the assay on OVCAR-5 ovarian it was over 100 µM. Further, the values for the GI50 with RPMI-8226 leukemia and in the assay with SK-MEL-2 melanoma were 12.4 µM and over 100 µM, respectively.

For `CCn1cnc(C[C@H](NC(=O)[C@@H](NC(=O)Nc2cc(C(F)(F)F)cc(C(F)(F)F)c2)C(C)(C)C)C(=O)OC)c1`, the GI50 with ACHN renal, in the assay on DU-145 prostate, in the assay on HOP-92 NSCLC, in the assay with KM12 colon, in the assay on MALME-3M melanoma and with NCI-H23 lung was over 10 µM each time. Moreover, the GI50 in the assay on OVCAR-4 ovarian, in the assay on OVCAR-5 ovarian, with RPMI-8226 leukemia and with SK-MEL-2 melanoma was over 10 µM each time. Moreover, the TGI in the assay with ACHN renal, in the assay on DU-145 prostate, with HOP-92 NSCLC, in the assay on KM12 colon, in the assay on MALME-3M melanoma and in the assay on NCI-H23 lung was over 10 µM throughout. Besides, the TGI in the assay on OVCAR-4 ovarian, in the assay on OVCAR-5 ovarian, with RPMI-8226 leukemia and in the assay on SK-MEL-2 melanoma was over 10 µM in each case.

Take `COc1ccc(C(=O)c2no[n+]([O-])c2C(=O)c2ccc(OC)cc2)cc1`: the GI50 in the assay on ACHN renal was 1.9 µM; in the assay on DU-145 prostate, 14.5 µM; in the assay with HOP-92 NSCLC, 1.72 µM; with KM12 colon, 8.91 µM; with MALME-3M melanoma, 0.82 µM; with NCI-H23 lung, 2.94 µM. The GI50 in the assay on OVCAR-4 ovarian is 2.36 µM; with OVCAR-5 ovarian it was 10.6 µM; in the assay with RPMI-8226 leukemia it was 2.06 µM; in the assay on SK-MEL-2 melanoma it was 6.59 µM. For the same molecule, the TGI in the assay on ACHN renal was 3.4 µM; in the assay on DU-145 prostate, 27.6 µM; with HOP-92 NSCLC it was 3.96 µM; in the assay with KM12 colon it was 22.4 µM; in the assay with MALME-3M melanoma, 3.07 µM; with NCI-H23 lung, 8.74 µM. Further, the TGI was 6.26 µM in the assay with OVCAR-4 ovarian, 25.7 µM with OVCAR-5 ovarian, 4.85 µM in the assay on RPMI-8226 leukemia and 23.1 µM in the assay on SK-MEL-2 melanoma.

In the case of `Cc1cc(N)c2cc(NC(=O)/C=C\c3ccccc3Cl)ccc2n1`, the GI50 with ACHN renal is 1.83 µM; in the assay on DU-145 prostate, 1.45 µM; with HOP-92 NSCLC, 1.56 µM; in the assay on KM12 colon it was 0.767 µM; in the assay on MALME-3M melanoma it was 2.05 µM; with NCI-H23 lung it was 1.73 µM. The GI50 in the assay with OVCAR-4 ovarian is 0.365 µM; in the assay on OVCAR-5 ovarian, 1.33 µM; in the assay on SK-MEL-2 melanoma, 1.83 µM. Also, the TGI in the assay with ACHN renal is 3.26 µM; with DU-145 prostate it was 2.87 µM; with HOP-92 NSCLC it was 3.27 µM; in the assay on KM12 colon it was 2.11 µM; in the assay on MALME-3M melanoma it was 3.89 µM; in the assay on NCI-H23 lung, 3.32 µM. For the same molecule, the values for the TGI with OVCAR-4 ovarian, in the assay on OVCAR-5 ovarian and in the assay with SK-MEL-2 melanoma were 0.971 µM, 2.69 µM and 3.34 µM, respectively.

For the molecule `O=C(/C=C/c1cccc(Cl)c1)c1ccccc1`, the GI50 in the assay on ACHN renal is 10.5 µM; in the assay on DU-145 prostate it was 11.7 µM; in the assay on HOP-92 NSCLC, 16.3 µM; with KM12 colon it was 1.96 µM; with MALME-3M melanoma it was 14.4 µM; in the assay on NCI-H23 lung, 14.8 µM. Besides, the GI50 with OVCAR-4 ovarian is 13.6 µM; in the assay with OVCAR-5 ovarian, 11.2 µM; in the assay with RPMI-8226 leukemia it was 3.09 µM. Moreover, the TGI in the assay with ACHN renal was found to be 23.3 µM; with DU-145 prostate it was 24.2 µM; in the assay on HOP-92 NSCLC, 32.8 µM; in the assay on KM12 colon it was 4.86 µM; in the assay with MALME-3M melanoma it was 33.7 µM; with NCI-H23 lung, 29.6 µM. Further, the TGI in the assay with OVCAR-4 ovarian is 26.8 µM; in the assay on OVCAR-5 ovarian it was 24.5 µM; in the assay with RPMI-8226 leukemia it was 9.04 µM.

As for `CCCCCCCCCCCCNCCCc1ccccc1`, the GI50 in the assay with ACHN renal was 1.8 µM; in the assay with DU-145 prostate, 1.92 µM; in the assay on HOP-92 NSCLC, 1.34 µM; in the assay on KM12 colon, 1.75 µM; in the assay on MALME-3M melanoma it was 1.97 µM; in the assay on NCI-H23 lung, 1.9 µM. Further, the GI50 with OVCAR-4 ovarian is 1.57 µM; in the assay on OVCAR-5 ovarian it was 1.68 µM; in the assay with RPMI-8226 leukemia it was 2.09 µM. In addition, the TGI was determined as 3.5 µM in the assay with ACHN renal; 3.51 µM in the assay on DU-145 prostate; 2.83 µM in the assay with HOP-92 NSCLC; 3.13 µM with KM12 colon; 3.64 µM in the assay with MALME-3M melanoma; 3.65 µM with NCI-H23 lung. For the same molecule, the TGI in the assay with OVCAR-4 ovarian stood at 2.98 µM; with OVCAR-5 ovarian it was 3.48 µM; with RPMI-8226 leukemia, 4.41 µM.

With `CC(C)(C)c1ccc(OCCCCCCCN2CCNCC2)cc1`, the GI50 is 1.78 µM in the assay with DU-145 prostate; 1.72 µM with HOP-92 NSCLC; 1.85 µM in the assay with KM12 colon; 1.6 µM in the assay with MALME-3M melanoma; 4.28 µM with NCI-H23 lung; 1.6 µM in the assay on OVCAR-4 ovarian. Further, the GI50 with RPMI-8226 leukemia was 1.83 µM; in the assay with SK-MEL-2 melanoma, 1.74 µM. Further, the TGI stood at 3.37 µM in the assay with DU-145 prostate; 6.11 µM in the assay with HOP-92 NSCLC; 3.6 µM with KM12 colon; 3.17 µM in the assay on MALME-3M melanoma; 17.6 µM in the assay on NCI-H23 lung; 3.22 µM in the assay with OVCAR-4 ovarian. For the same molecule, the TGI is 4.25 µM with RPMI-8226 leukemia and 3.47 µM in the assay on SK-MEL-2 melanoma.

Values taken from PubChem BioAssay (NCI).
